{"source": "paper PMC4883822", "about": "“High-Efficiency Capture of Drug Resistant-Influenza Virus by Live Imaging of Sialidase Activity” (PLoS ONE, 2016)", "target": "T1, sialidase (neuraminidase, NA) of oseltamivir-sensitive 838 (Influenza A virus (A/Lima/070674913/2013(H1N1)), UniProt W8DXJ8)", "T1 construct": "full-length viral NA on whole virus grown in MDCK cells (or on infected MDCK cells); natural 275H", "assay": "live-focus fluorescence imaging of sialidase activity, qualitative", "format": "cell-based", "details": "substrate BTP3-Neu5Ac, 37 °C, 1 h, infected MDCK cells"}
{"compound": "CCC(CC)[C@H](NC(C)=O)[C@@H]1[C@H](O)[C@@H](C(=O)O)C[C@H]1N=C(N)N", "note": "[peramivir]", "values": [{"measurement": "inhibition at 10-1000 nM (qualitative)", "value": "adding BTP3-Neu5Ac with clinical use-approved NAIs (oseltamivir, zanamivir, peramivir, and laninamivir)"}]}
